Test results from patent publication US11667632B2, “2-(1H-indazol-3-yl)-3H-imidazo[4,5-C]pyridines and their anti-inflammatory uses thereof” (BioSplice Therapeutics, Inc., priority 2015, dated 2023).

How the values were obtained:
[1] = Stability and radiochemical purity of the [3H]-Compound 10 formulation incubated at 37° C.; type: physicochemical
Description: The stability and radiochemical purity (RCP) of the radiolabeled [^3H]-Compound 10 was established in a concurrent experiment where a formulation of radiolabeled [3^H]-Compound 10 was incubated at 37° C. and radiochemical purity (RCP) of aliquots were analyzed over time and determined to be ˜ 95.5% (Days 0, 7, 14 and 30), 94.5% (Day 60), 93% (Day 90), and 83% (Day 180).

[2] = tested on: Tumor Necrosis Factor Alpha (TNF-α); test: Inhibition of TNF-α secretion in IL-1β-stimulated synovial fibroblasts (SW982), ELISA; type: cell-based; settings: human synovial fibroblasts stimulated with IL-1β, treated 24 hrs, FIG. 14A
Description: Synovial fibroblasts (SW982 cells; ATCC) were cultured in Leibovitz's L-15 Medium (ATCC) with 10% FBS at 37° C. and 0% CO2. 24 hours before the start of the assay, media was changed to Leibovitz's L-15 Medium with […]. Compound 10 was dissolved in DMSO as a 10 mM stock and used to prepare compound source plates. A serial dilution (8-point dose-response) and compound transfer was performed using the ECHO 550 (Labcyte, Sunnyvale, Calif.) into 96-well clear bottom assay plates (Greiner Bio-One) with appropriate DMSO backfill for a final DMSO concentration of 0.05%. […] Plates were spun in a centrifuge for 1 minute at 10,000 rpm and supernatants were collected for ELISA.
Supernatants were diluted 1:1 for the TNFα assay and 1:4 for the IL6 assay using the assay medium. ELISA was performed using Human TNF-α ELISA MAX™ Deluxe (Catalog #430204, Biolegend, San Diego, Calif.) and Human IL-6 ELISA MAX™ Deluxe (Catalog #430504, Biolegend, San Diego, Calif.) kits. […] Following several washes to remove unbound avidin-HRP, the TMB substrate was added and the plates were read on the Cytation 3 plate reader (Biotek Inc., Winooski, Vt.) at an absorbance of 450 nm with correction at 570 nm. […] Inhibition profile and EC50 was calculated using Prism 5 (GraphPad Software Inc, La Jolla, Calif., USA).

[3] = Quantitative whole body autoradiography and excretion of radiolabeled Compound 10 in rats; type: in vivo; settings: SD rats, two IA injections at 1 μg/knee
Source text: In terms of excretion, 95% of the excreted radioactivity was recovered in the feces and only 5% in the urine. QWBA radiographic images and quantitation of radioactivity in the feces with much less recovery in the urine, support the hypothesis that [^3H]-Compound 10 is being eliminated by drainage in the lumbar and inguinal lymph ducts and lymph nodes, and through the small and large intestines and cecum in a mechanism consistent with slow passive fecal excretion, a major route of elimination of slowly metabolized xenobiotics. During this process, the radiolabeled [3H]-Compound 10 was degraded with only ˜1.5% of parent detected in the fecal matter.

IFN-γ = test: Inhibition of IFN-γ in LPS-stimulated primary PBMCs (MSD U-plex); type: cell-based; settings: human PBMCs, LPS (500 ng/mL), Compound 10 (150 nM), 24 hrs; MSD platform; FIG. 15
Description: Primary peripheral blood mononuclear cells (PBMCs) freshly isolated from healthy human donors were obtained from AllCells Inc. and utilized for assays immediately. Compound 10 was dissolved in DMSO as a 10 mM stock and used to prepare compound source plates. A serial dilution (8-point dose-response) and compound transfer was performed using the ECHO 550 (Labcyte, Sunnyvale, Calif.) into 96-well clear bottom assay plates (Greiner Bio-One) with appropriate DMSO backfill for a final DMSO concentration of 0.05%. PBMCs were plated at 2×10e^5 cells/well in Roswell Park Memorial Institute (RPMI) 1640 Medium (Catalog #21870-100, Buffalo, N.Y.) with 1% L-glutamine, 1% HEPES, 1% Sodium Pyruvate, 2% Sodium Bicarbonate supplemented with 100 units/mL penicillin, 50 μg/mL streptomycin and 1% fetal bovine serum (Catalog #16140089, Life Technologies, Carlsbad, Calif.). […]
Supernatants were diluted appropriately for ELISA. […] Following several washes to remove unbound avidin-HRP, the TMB substrate was added and the plates were read on the Cytation 3 plate reader (Biotek Inc., Winooski, Vt.) at an absorbance of 450 nm with correction at 570 nm. […] Inhibition profile and EC50 was calculated using Prism 5 (GraphPad Software Inc, La Jolla, Calif., USA). […] Levels of cytokines were calculated using software form Meso Scale Discovery.

**Q.** With CC(C)CC(=O)Nc1cncc(-c2ccc3[nH]nc(-c4nc5c(-c6cccc(F)c6)cncc5[nH]4)c3c2)c1 [Compound 10] as the molecule, how does the “radiochemical purity (RCP) of formulation over time” value (from here on “radiochemical purity … over time”) ([1]; Day 60) read?
**A.** Its value is 94.5%.

**Q.** And the “radiochemical purity … over time” value ([1]; Day 90)?
**A.** The value was 93%.

**Q.** And the “radiochemical purity … over time” value ([1]; Day 180)?
**A.** The value was 83%.

**Q.** What about the “radiochemical purity … over time” value ([1]; Days 0, 7, 14 and 30) of the same molecule?
**A.** The value was ~95.5%.

**Q.** And the “inhibition of TNF-a secretion” value [2]?
**A.** Its value is “inhibition”.

**Q.** And the “excreted radioactivity recovered in the feces” value [3]?
**A.** The value was 95%.

**Q.** What about the “excreted radioactivity recovered in the urine” value [3] of the same molecule?
**A.** The value was 5%.

**Q.** And the “parent detected in the fecal matter” value [3]?
**A.** Its value is ~1.5%.

**Q.** What about the “total radioactivity recovered from the whole carcass, feces, urine and cage wash” value ([3]; QWBA) of the same molecule?
**A.** The value was ~75%.

**Q.** And the “radioactivity in major organs” value ([3]; at 1 hour and up to 168 hours post-IA injection)?
**A.** The value was “negligible/undetectable”.

**Q.** And the “Inhibition of IFN-γ” value (IFN-γ)?
**A.** The value was “Inhibition”.
